Experimental data: patent US20230302010A1, “2-((4S)-6-(4-CHLOROPHENYL)-1-METHYL-4H-BENZO[C]ISOXAZOLO[4,5-E]AZEPIN-4-YL)ACETAMIDE FOR TREATING THROMBOCYTHEMIA” (Constellation Pharmaceuticals, Inc., priority 2020, published 2023)
Where two headings read alike, the source gives them in different places.

What was measured:
[1] = tested on: IL6 release from THP-1 acute leukemia cells; assay: IL6 release from lipopolysaccharide-treated THP-1 cells; type: cell-based; settings: Homo sapiens; THP-1 cells exposed to lipopolysaccharide, then compound for 16 hours; read-out: IL6 release inhibition IC50
Protocol: Compound 1 was assessed for its ability to suppress the expression of NF-κB target genes in two experiments. In one experiment, THP-1 acute leukemia cell lines were exposed to lipopolysaccharide treatment and then Compound 1 for 16 hours. […] In the other experiment, the ability of Compound 1 to suppress both IL6 and IL10 expression in TMD8 ABC-DLBCL cells was investigated (data on file). TMD8 cells were incubated with DMSO or 1.6 μM Compound 1 for 6 or 24 hours. RNA was then extracted from the cells and quantified using qRT-PCR.

[2] = tested on: CD34+ cells isolated from healthy donor bone marrow; assay: Megakaryocyte differentiation of CD34+ cells (FACS, CD41a expression); type: cell-based; settings: 14 days, FACS (FIG. 2)
Protocol: The effects of Compound 1 on megakaryocyte differentiation and proliferation were evaluated using CD34+ cells isolated from healthy donor bone marrow (data on file). The CD34+ cells were grown in megakaryocyte differentiation serum-free stem cell differentiation base medium with a megakaryocyte-driving cytokine cocktail for 14 days with DMSO or Compound 1 at concentrations ranging from 3 nM to 500 nM. The cells were then stained for CD34 (progenitor marker), CD45 (leukocyte marker) and CD41a (mature megakaryocyte marker) and assessed by FACS for viability and marker expression. CD41a expression and cell size were used as markers of megakaryocyte differentiation. […] The shift from high to low CD41a expression began at approximately 50 nM, with pronounced effects observed at 200 to 500 nM, as shown in FIG. 2.

[3] = tested on: patients with high-risk ET; settings: cited from earlier work

IC50 [1] [nM]	Compound	concentration at which shift from high to low CD41a expression began [2]	survival from the beginning of treatment ([3]; 14-year retrospective study, 166 high-risk ET patients) [%]	patients who died ([3]; 166 high-risk ET patients treated for a median of 4.5 years, median follow-up of seven years from diagnosis) [%]	10-year overall survival ([3]; patients who achieved a complete response) [%]	10-year overall survival ([3]; patients with HU resistance) [%]
69	Cc1noc2c1-c1ccccc1C(c1ccc(Cl)cc1)=N[C@H]2CC(N)=O [Compound 1, 2-((4S)-6-(4-chlorophenyl)-1-methyl-4H-benzo[c]isoxazolo[4,5-e]azepin-4-yl)acetamide]	approximately 50 nM	–	–	–	–
–	NC(=O)NO [HU, hydroxyurea]	–	65	23	79	26
